Values of other authors as cited in patent publication US20250387420A1, “Prevention of Nausea and Vomiting from Antibody-Drug Conjugates and other Long-Acting Emetogenics” (Helsinn Healthcare SA, priority 2024, published 2025).

Experiments:
NK1 receptor = NK1 receptor (Homo sapiens, UniProt P25103)
[1] = tested on: patients receiving cisplatin-based chemotherapy; details: 168 hours following highly emetogenic cisplatin-based therapy
[2] = 48 hours after a single 300 mg oral netupitant dose; Gilmore and Bernareggi 2019

NK1 receptor, sequence (P25103 whole entry): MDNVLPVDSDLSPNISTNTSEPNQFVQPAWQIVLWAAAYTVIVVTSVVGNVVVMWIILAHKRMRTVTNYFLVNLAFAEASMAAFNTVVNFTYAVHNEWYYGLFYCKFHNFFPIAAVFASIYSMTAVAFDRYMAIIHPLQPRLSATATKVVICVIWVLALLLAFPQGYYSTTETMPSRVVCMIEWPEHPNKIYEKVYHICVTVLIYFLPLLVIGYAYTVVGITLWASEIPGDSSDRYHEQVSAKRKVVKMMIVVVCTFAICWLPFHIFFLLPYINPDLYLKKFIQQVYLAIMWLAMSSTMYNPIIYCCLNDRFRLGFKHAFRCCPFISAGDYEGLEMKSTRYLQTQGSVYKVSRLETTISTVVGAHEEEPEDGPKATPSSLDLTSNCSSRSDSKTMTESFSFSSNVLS

| plasma concentration at which 90% receptor occupancy is achieved (NK1 receptor; Spinelli et al. 2013) [ng/mL] | plasma concentration [2] | NK1 receptor occupancy rates necessary for efficacy (NK1 receptor; Bergstrom et al. 2004) [%] | SMILES | comparative efficacy versus aprepitant [1] |
| --- | --- | --- | --- | --- |
| 225 | below 100 ng/mL |  | Cc1ccccc1-c1cc(N2CCN(C)CC2)ncc1N(C)C(=O)C(C)(C)c1cc(C(F)(F)F)cc(C(F)(F)F)c1 [netupitant] | favorable comparative efficacy to aprepitant |
|  |  | > 90 | C[C@@H](O[C@H]1OCCN(Cc2n[nH]c(=O)[nH]2)[C@H]1c1ccc(F)cc1)c1cc(C(F)(F)F)cc(C(F)(F)F)c1 [aprepitant] |  |
